This is an account of results in patent publication US12391679B2, “Benzamide-substituted bicyclic imidazo- and pyrazolo-fused -pyridine, -pyrimide, and -pyridazine compounds for treatment of inflammatory diseases” (ONCO3R Therapeutics BV, priority 2019, dated 2025).

Type in all cases: biochemical
The target of one experiment is T1, SIK1 (Homo sapiens, UniProt P57059).
T1 construct: purchased Carna Biosciences 02-131
Put plainly: ADP-Glo kinase assay, SIK1. The procedure:
(§1) The ADP-Glo™ kinase assay is a luminescent technology assay which measures the ADP formed from a kinase reaction. […] In a second step the kinase reactions are terminated and all the remaining ATP is depleted. In a final step the ADP is converted into ATP and this newly synthesized ATP is measured by using a luciferase/luciferin reaction. The generated light is measured using an Envision plate reader, wherein the luminescent signal obtained positively correlates with the kinase activity.
(§2) 1% DMSO and 10 μM staurosporine final concentrations are used as negative and positive controls.
(§3) 2 μL enzyme-substrate mixture is added to the assay plates.
(§4) The reaction is started by adding 2 μL diluted ATP on the assay plates. Plates are centrifuged for a few seconds at 1000 rpm and gently shaken for […] followed by an incubation at RT for 120 min.
(§5) The reactions are stopped and the unconsumed ATP is depleted by adding 5 μL ADP-Glo Reagent (Promega, Cat #V9120) to the reaction. The plates are centrifuged for a few seconds at 1000 rpm and incubated at RT for 40 min (ATP depletion).
(§6) The ADP is converted to ATP and luciferase and luciferin is introduced to detect ATP by adding 10 μL Kinase Detection Reagent (Promega, Cat #V913B+V914r) to the reaction. The plates are centrifuged for a few seconds at 1000 rpm and incubated at RT for 30 min (ADP detection).
(§7) Luminescence is measured on an Envision plate reader (PerkinElmer Inc.).

For the next experiment, the target named is T2, SIK2 (Homo sapiens, UniProt Q9H0K1).
T2 construct: purchased ThermoFisher Scientific PV4792
T2 sequence (Q9H0K1 whole entry): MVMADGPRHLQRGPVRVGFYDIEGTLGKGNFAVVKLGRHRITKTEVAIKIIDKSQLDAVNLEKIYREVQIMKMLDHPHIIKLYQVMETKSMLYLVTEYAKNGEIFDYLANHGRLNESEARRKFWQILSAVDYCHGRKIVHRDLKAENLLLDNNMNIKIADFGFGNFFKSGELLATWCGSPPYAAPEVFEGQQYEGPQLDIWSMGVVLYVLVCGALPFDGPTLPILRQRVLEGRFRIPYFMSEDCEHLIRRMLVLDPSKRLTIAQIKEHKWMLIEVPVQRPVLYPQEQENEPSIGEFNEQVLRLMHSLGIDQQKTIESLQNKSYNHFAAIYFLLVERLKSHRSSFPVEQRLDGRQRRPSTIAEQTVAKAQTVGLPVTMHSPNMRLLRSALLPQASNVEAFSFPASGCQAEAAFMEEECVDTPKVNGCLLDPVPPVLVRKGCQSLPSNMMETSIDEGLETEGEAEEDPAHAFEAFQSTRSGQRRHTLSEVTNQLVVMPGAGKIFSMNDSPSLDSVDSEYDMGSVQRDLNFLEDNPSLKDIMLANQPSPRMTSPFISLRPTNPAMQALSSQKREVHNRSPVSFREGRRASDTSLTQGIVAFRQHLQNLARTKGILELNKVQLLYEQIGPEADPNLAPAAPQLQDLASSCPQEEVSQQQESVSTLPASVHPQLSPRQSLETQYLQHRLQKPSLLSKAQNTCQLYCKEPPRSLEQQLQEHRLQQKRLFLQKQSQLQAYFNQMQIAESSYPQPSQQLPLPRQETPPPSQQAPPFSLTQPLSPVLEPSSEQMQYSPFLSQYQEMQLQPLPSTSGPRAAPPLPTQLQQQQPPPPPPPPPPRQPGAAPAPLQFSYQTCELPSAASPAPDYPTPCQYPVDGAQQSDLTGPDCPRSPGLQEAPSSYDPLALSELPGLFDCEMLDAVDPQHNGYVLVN
Description: ADP-Glo kinase assay, SIK2. As for the experimental part: as §1, §2, §3, §4, §5, §6, §7

The target in a further experiment is T3, SIK3 (Homo sapiens, UniProt Q9Y2K2).
T3 construct: purchased SignalChem S12-11G-100
T3 sequence (Q9Y2K2 59-365 limits assumed): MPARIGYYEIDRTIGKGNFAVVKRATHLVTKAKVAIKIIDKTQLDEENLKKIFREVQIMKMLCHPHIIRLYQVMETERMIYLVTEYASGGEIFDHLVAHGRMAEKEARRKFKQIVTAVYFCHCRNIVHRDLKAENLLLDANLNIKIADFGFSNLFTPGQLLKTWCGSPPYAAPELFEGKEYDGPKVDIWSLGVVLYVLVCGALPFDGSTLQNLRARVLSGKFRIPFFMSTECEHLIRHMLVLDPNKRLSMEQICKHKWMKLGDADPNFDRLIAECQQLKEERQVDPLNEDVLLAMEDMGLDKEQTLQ
Put plainly: ADP-Glo kinase assay, SIK3. The procedure: as §1, §2, §3, §4, §5, §6, §7

T1 sequence (P57059 whole entry): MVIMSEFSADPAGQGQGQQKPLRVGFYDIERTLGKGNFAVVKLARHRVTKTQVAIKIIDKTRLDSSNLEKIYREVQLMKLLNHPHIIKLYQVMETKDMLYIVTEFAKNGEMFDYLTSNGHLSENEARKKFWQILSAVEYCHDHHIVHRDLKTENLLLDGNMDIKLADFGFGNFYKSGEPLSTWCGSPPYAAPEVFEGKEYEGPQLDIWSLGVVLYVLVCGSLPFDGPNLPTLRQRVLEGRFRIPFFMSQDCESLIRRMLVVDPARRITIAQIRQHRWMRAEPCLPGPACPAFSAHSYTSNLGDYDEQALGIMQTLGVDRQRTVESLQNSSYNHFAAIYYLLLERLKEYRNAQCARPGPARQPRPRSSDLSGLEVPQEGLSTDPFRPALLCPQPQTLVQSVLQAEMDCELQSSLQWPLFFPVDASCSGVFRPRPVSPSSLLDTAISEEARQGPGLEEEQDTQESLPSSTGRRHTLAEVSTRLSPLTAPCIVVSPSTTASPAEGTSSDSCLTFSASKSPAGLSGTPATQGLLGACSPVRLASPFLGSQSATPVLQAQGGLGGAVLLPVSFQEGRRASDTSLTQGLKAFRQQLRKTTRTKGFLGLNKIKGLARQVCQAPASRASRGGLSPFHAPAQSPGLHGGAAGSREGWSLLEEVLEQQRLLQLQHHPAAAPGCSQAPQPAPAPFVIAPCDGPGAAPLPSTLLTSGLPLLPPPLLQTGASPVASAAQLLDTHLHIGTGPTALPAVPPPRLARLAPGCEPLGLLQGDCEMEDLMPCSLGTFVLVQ

As for `COc1cc(-c2cnc3cc(C4CCN(C(=O)OC(C)(C)C)CC4)ccn23)cc(OC(F)F)c1C(=O)NC1CC1` [Cpd 60, tert-butyl 4-[3-[4-(cyclopropylcarbamoyl)-3-(difluoromethoxy)-5-methoxy-phenyl]imidazo[1,2-a]pyridin-7-yl]piperidine-1-carboxylate], the figures for the IC50 on SIK1, at SIK2 and at SIK3 were 100 to 500 nM, 10 to 100 nM and 0.01 to 10 nM, respectively.

For `COc1cc(-c2cnc3cc(C(C)(C)c4noc(C)n4)ccn23)cc(OC(F)F)c1C(=O)NC1CC1` [Cpd 61, N-cyclopropyl-2-(difluoromethoxy)-6-methoxy-4-[7-[1-methyl-1-(5-methyl-1,2,4-oxadiazol-3-yl)ethyl]imidazo[1,2-a]pyridin-3-yl]benzamide], the IC50 at SIK1 was over 500 nM; at SIK2, over 500 nM; against SIK3, 10 to 100 nM.

Turning to `COc1cc(-c2cnc3cc(C4CCCNC4)ccn23)cc(OC(F)F)c1C(=O)NC1CC1` (stereo not drawn) [Cpd 65, N-cyclopropyl-2-(difluoromethoxy)-6-methoxy-4-[7-(3-piperidyl)imidazo[1,2-a]pyridin-3-yl]benzamide], the figures for the IC50 against SIK1, at SIK2 and against SIK3 were over 500 nM, 10 to 100 nM and 0.01 to 10 nM, respectively.

In the case of `COc1cc(-c2cnc3cc(C4CCNCC4)ccn23)cc(OC(F)F)c1C(=O)NC1CC1` [Cpd 66, N-cyclopropyl-2-(difluoromethoxy)-6-methoxy-4-[7-(4-piperidyl)imidazo[1,2-a]pyridin-3-yl]benzamide], the IC50 was over 500 nM against SIK1, 10 to 100 nM against SIK2 and 10 to 100 nM against SIK3.

`COc1cc(-c2cnc3cc(C(C)(C)C#N)ccn23)cc(OC(F)F)c1C(=O)NC(C)C(F)F` (stereo not drawn) [Cpd 71, 4-[7-(1-cyano-1-methyl-ethyl)imidazo[1,2-a]pyridin-3-yl]-2-(difluoromethoxy)-N-(2,2-difluoro-1-methyl-ethyl)-6-methoxy-benzamide]: the half-inhibitory concentration (IC50) on SIK1 was over 500 nM; against SIK2, over 500 nM; at SIK3, 10 to 100 nM.

`COc1cc(-c2cnc3cc(C(C)(C)C#N)ccn23)cc(OC(F)F)c1C(=O)NCC(C)C` [Cpd 72, 4-[7-(1-cyano-1-methyl-ethyl)imidazo[1,2-a]pyridin-3-yl]-2-(difluoromethoxy)-N-isobutyl-6-methoxy-benzamide]: the IC50 on SIK1 is over 500 nM; against SIK2, over 500 nM; on SIK3 it was 10 to 100 nM.

With `COc1cc(-c2cnc3cc(C(C)(C)C#N)ccn23)cc(OC(F)F)c1C(=O)NC1CS(=O)(=O)C1` [Cpd 73, 4-[7-(1-cyano-1-methyl-ethyl)imidazo[1,2-a]pyridin-3-yl]-2-(difluoromethoxy)-N-(1,1-dioxothietan-3-yl)-6-methoxy-benzamide], the IC50 against SIK1 is over 500 nM; against SIK2, over 500 nM; at SIK3, 10 to 100 nM.

Take `COc1cc(-c2cnc3cc(C(C)(C)C#N)ccn23)cc(OC(F)F)c1C(=O)N1CC(O)(C2CC2)C1` [Cpd 74, 2-[3-[4-(3-cyclopropyl-3-hydroxy-azetidine-1-carbonyl)-3-(difluoromethoxy)-5-methoxy-phenyl]imidazo[1,2-a]pyridin-7-yl]-2-methyl-propanenitrile]: the IC50 against SIK1 was over 500 nM; at SIK2, over 500 nM; at SIK3, 10 to 100 nM.

For `COc1cc(-c2cnc3cc(C(C)(C)C#N)ccn23)cc(OC(F)F)c1C(=O)N1CC(O)(C(F)(F)F)C1` [Cpd 75, 2-[3-[3-(difluoromethoxy)-4-[3-hydroxy-3-(trifluoromethyl)azetidine-1-carbonyl]-5-methoxy-phenyl]imidazo[1,2-a]pyridin-7-yl]-2-methyl-propanenitrile], the values for the IC50 against SIK1, on SIK2 and against SIK3 were over 500 nM, 100 to 500 nM and 0.01 to 10 nM, respectively.

Turning to `COc1cc(-c2cnc3cc(C(C)(C)C#N)ccn23)cc(OC(F)F)c1C(=O)N1CC(C(F)(F)F)C1` [Cpd 76, 2-[3-[3-(difluoromethoxy)-5-methoxy-4-[3-(trifluoromethyl)azetidine-1-carbonyl]phenyl]imidazo[1,2-a]pyridin-7-yl]-2-methyl-propanenitrile], the IC50 against SIK1 is over 500 nM; against SIK2, 100 to 500 nM; at SIK3, 0.01 to 10 nM.

With `COc1cc(-c2cnc3cc(C(C)(C)C#N)ccn23)cc(OC(F)F)c1C(=O)NC(C)C` [Cpd 78, 4-[7-(1-cyano-1-methyl-ethyl)imidazo[1,2-a]pyridin-3-yl]-2-(difluoromethoxy)-N-isopropyl-6-methoxy-benzamide], the IC50 on SIK1 is over 500 nM; on SIK2, over 500 nM; against SIK3, 10 to 100 nM.

For `COc1cc(-c2cnc3cc(C(C)(C)C#N)ccn23)cc(OC(F)F)c1C(=O)NC1(C(C)C)CC1` [Cpd 80, 4-[7-(1-cyano-1-methyl-ethyl)imidazo[1,2-a]pyridin-3-yl]-2-(difluoromethoxy)-N-(1-isopropylcyclopropyl)-6-methoxy-benzamide], the IC50 on SIK1, against SIK2 and against SIK3 was over 500 nM throughout.

With `COCC1(NC(=O)c2c(OC)cc(-c3cnc4cc(C(C)(C)C#N)ccn34)cc2OC(F)F)CC1` [Cpd 81, 4-[7-(1-cyano-1-methyl-ethyl)imidazo[1,2-a]pyridin-3-yl]-2-(difluoromethoxy)-6-methoxy-N-[1-(methoxymethyl)cyclopropyl]benzamide], the IC50 against SIK1, against SIK2 and on SIK3 was over 500 nM in each case.

Regarding `COc1cc(-c2cnc3cc(C(C)(C)C#N)ccn23)cc(OC(F)F)c1C(=O)N(C)CC1CC1` [Cpd 82, 4-[7-(1-cyano-1-methyl-ethyl)imidazo[1,2-a]pyridin-3-yl]-N-(cyclopropylmethyl)-2-(difluoromethoxy)-6-methoxy-N-methyl-benzamide], the IC50 at SIK1, against SIK2 and against SIK3 was over 500 nM throughout.

With `CCC1(NC(=O)c2c(OC)cc(-c3cnc4cc(C(C)(C)C#N)ccn34)cc2OC(F)F)CC1` [Cpd 83, 4-[7-(1-cyano-1-methyl-ethyl)imidazo[1,2-a]pyridin-3-yl]-2-(difluoromethoxy)-N-(1-ethylcyclopropyl)-6-methoxy-benzamide], the IC50 at SIK1, against SIK2 and at SIK3 was over 500 nM each time.

Take `COc1cc(-c2cnc3cc(C(C)(C)C#N)ccn23)cc(OC(F)F)c1C(=O)N(C)C1CC1` [Cpd 84, 4-[7-(1-cyano-1-methyl-ethyl)imidazo[1,2-a]pyridin-3-yl]-N-cyclopropyl-2-(difluoromethoxy)-6-methoxy-N-methyl-benzamide]: the IC50 was over 500 nM against SIK1, over 500 nM against SIK2 and 100 to 500 nM on SIK3.

On to `COc1cc(-c2cnc3cc(C(C)(C)C#N)ccn23)cc(OC(F)F)c1C(=O)NCC1CCOC1` (stereo not drawn) [Cpd 85, 4-[7-(1-cyano-1-methyl-ethyl)imidazo[1,2-a]pyridin-3-yl]-2-(difluoromethoxy)-6-methoxy-N-(tetrahydrofuran-3-ylmethyl)benzamide], for which the IC50 on SIK1 was over 500 nM; on SIK2, over 500 nM; against SIK3, 100 to 500 nM.

Consider `COc1cc(-c2cnc3cc(C(C)(C)C#N)ccn23)cc(OC(F)F)c1C(=O)NC1CCOC1` (stereo not drawn) [Cpd 86, 4-[7-(1-cyano-1-methyl-ethyl)imidazo[1,2-a]pyridin-3-yl]-2-(difluoromethoxy)-6-methoxy-N-tetrahydrofuran-3-yl-benzamide], for which the values for the IC50 on SIK1, on SIK2 and at SIK3 were over 500 nM, over 500 nM and 10 to 100 nM, respectively.

On to `COc1cc(-c2cnc3cc(C(C)(C)C#N)ccn23)cc(OC(F)F)c1C(=O)NC(CO)C1CC1` (stereo not drawn) [Cpd 87, 4-[7-(1-cyano-1-methyl-ethyl)imidazo[1,2-a]pyridin-3-yl]-N-(1-cyclopropyl-2-hydroxy-ethyl)-2-(difluoromethoxy)-6-methoxy-benzamide], for which the IC50 against SIK1, against SIK2 and on SIK3 was over 500 nM throughout.

For the compound `COc1cc(-c2cnc3cc(C(C)(C)C#N)ccn23)cc(OC(F)F)c1C(=O)NC1CC(F)(F)C1` [Cpd 88, 4-[7-(1-cyano-1-methyl-ethyl)imidazo[1,2-a]pyridin-3-yl]-N-(3,3-difluorocyclobutyl)-2-(difluoromethoxy)-6-methoxy-benzamide], the results for the IC50 on SIK1, against SIK2 and at SIK3 were over 500 nM, over 500 nM and 10 to 100 nM, respectively.

In the case of `C#CC1(O)CN(C(=O)c2c(OC)cc(-c3cnc4cc(C(C)(C)C#N)ccn34)cc2OC(F)F)C1` [Cpd 89, 2-[3-[3-(difluoromethoxy)-4-(3-ethynyl-3-hydroxy-azetidine-1-carbonyl)-5-methoxy-phenyl]imidazo[1,2-a]pyridin-7-yl]-2-methyl-propanenitrile], the IC50 on SIK1 is over 500 nM; against SIK2, over 500 nM; against SIK3 it was 10 to 100 nM.

`COc1cc(-c2cnc3cc(C(C)(C)C#N)ccn23)cc(OC(F)F)c1C(=O)NCC1CCC1` [Cpd 90, 4-[7-(1-cyano-1-methyl-ethyl)imidazo[1,2-a]pyridin-3-yl]-N-(cyclobutylmethyl)-2-(difluoromethoxy)-6-methoxy-benzamide]: the IC50 against SIK1 is over 500 nM; on SIK2, over 500 nM; on SIK3, 10 to 100 nM.
